Values quoted from earlier work in US5897876A, “Emulsified drug delivery system” (Shire Laboratories Inc., priority 1997, dated 1999).

Tested on: peptide transport
Conditions: in other vehicles; "known"

## CCCCC/C=C\C/C=C\CCCCCCCC(=O)O [linoleic acid]
  promote peptide transport: known to promote peptide transport in other vehicles

## CCCCCCCC/C=C\CCCCCCCC(=O)O [oleic acid]
  promote peptide transport: known to promote peptide transport in other vehicles
